Laboratory results published in patent publication US20040049072A1, “RXR modulators with improved pharmacologic profile” (priority 1999, published 2004).
Entries after “also recorded” stand apart in the source; their conditions may differ.

Legend:
RXRα homodimer (RXR:RXR) = biological target: T1, RXRα homodimer (RXR:RXR) (Homo sapiens, UniProt P19793); assay: RXR homodimer co-transfection assay in CV-1 cells; type: cell-based; settings: for activity on the RXR:RXR homodimer: cotransfection assay; for RXR:RXR CV-1 (%) Antag.: maximal repression (100%) in presence of 32 nM LGD1069; for RXR:RXR CV-1 (%) Ag.: maximal response relative to ATRA; for EC50 / IC50: not calculated if efficacy <10%; for EC50: read-out: RXRα Homodimer Cotransfection Assay Agonist EC50; for IC50: in presence of LGD1069, read-out: RXRα Homodimer Cotransfection Assay Antagonist IC50
T1 sequence (P19793 1-462): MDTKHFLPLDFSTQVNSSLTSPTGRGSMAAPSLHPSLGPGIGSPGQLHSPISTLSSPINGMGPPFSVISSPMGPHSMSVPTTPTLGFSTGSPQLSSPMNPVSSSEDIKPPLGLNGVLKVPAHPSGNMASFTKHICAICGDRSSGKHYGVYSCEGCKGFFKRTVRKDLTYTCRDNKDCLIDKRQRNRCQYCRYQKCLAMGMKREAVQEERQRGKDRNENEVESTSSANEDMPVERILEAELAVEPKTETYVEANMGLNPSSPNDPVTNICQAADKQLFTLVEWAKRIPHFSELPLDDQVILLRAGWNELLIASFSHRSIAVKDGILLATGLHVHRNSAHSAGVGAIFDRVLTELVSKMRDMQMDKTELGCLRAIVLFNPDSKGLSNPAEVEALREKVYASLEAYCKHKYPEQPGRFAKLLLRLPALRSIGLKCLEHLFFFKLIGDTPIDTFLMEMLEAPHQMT
Description: In the co-transfection assay, cloned cDNA for one or more IRs (e.g., human RARα, RXRα, or PPARγ), alone or in combination (i.e. for heterodimer assays) under the control of a constitutive promoter (e.g., the SV 40, RSV or CMV promoter) is introduced by transfection (a procedure to introduce exogenous genes into cells) into a background cell substantially devoid of endogenous IRs. These introduced gene(s) direct the recipient cells to make the IR protein(s) of interest. A further gene is also introduced (co-transfected) into the same cells in conjunction with the IR gene(s). This further gene, comprising the cDNA for a reporter protein, such as firefly luciferase (LUC), controlled by an appropriate hormone responsive promoter containing a hormone response element (HRE). This reporter plasmid functions as a reporter for the transcriptional-modulating activity of the target IR(s). Thus, the reporter acts as a surrogate for the products (mRNA then protein) normally expressed by a gene under control of the target receptor(s) and their native hormone(s).
Exposing the transfected cells to an agonist ligand compound increases reporter activity in the transfected cells. This activity can be conveniently measured, e.g., by increasing luciferase production and enzymatic activity, which reflects compound-dependent, IR-mediated increases in reporter transcription. […] Increasing concentrations of an antagonist will decrease the reporter signal (e.g., luciferase production). The co-transfection assay is therefore useful to detect both agonists and antagonists of specific IRs. Furthermore, it determines not only whether a compound interacts with a particular IR, but whether this interaction mimics (agonizes) or blocks (antagonizes) the effects of native or synthetic regulatory molecules on target gene expression, as well as the specificity and strength of this interaction.
The receptor expression plasmid was cotransfected along with a reporter plasmid at 50 ng/well, the internal control plasmid pRS-β-Gal at 50 ng/well and filler DNA, pGEM, at 90 ng/well.
Six hours after transfection, media was removed and the cells were washed with phosphate-buffered saline (PBS). Media containing compounds of the present invention in concentrations ranging from 10^−10 to 10^−5 M were added to the cells. […] Retinoids were dissolved in dimethylsulfoxide for use in the transcriptional activation assays. Two to three replicates were used for each sample. Transfections and subsequent procedures were performed on a Biomek 1000 automated workstation.
After 40 hours, the cells were washed with PBS, lysed with a detergent-based buffer and assayed for LUC and β-Gal activities using a luminometer or spectrophotometer, respectively. For each replicate, the normalized response (NR) was calculated as: […]
The mean and standard error of the mean (SEM) of the NR were calculated. Data were plotted as the response of the compound compared to the reference compounds over the range of the dose-response curve. […] Antagonist activity was determined by testing the amount of LUC expression in the presence of the RXR agonists described above at the EC50 concentration for such known compounds. […] In addition, the efficacy of antagonists was determined as a function (%) of maximal inhibition.

RXRα:PPARγ heterodimer = biological target: T2, RXRα:PPARγ heterodimer (Homo sapiens, UniProt P19793); assay: RXR:PPARγ heterodimer co-transfection assay in CV-1 cells; type: cell-based; settings: for PPARγ CV-1 (%) Synergy: maximal response in presence of 100 nM BRL49653 relative to BRL49653 alone; for RXRα:PPARγ Heterodimer Cotransfection Assay Synerg Efficacy (%): maximal response in presence of 100 nM BRL relative to response of BRL alone; for RXRα:PPARγ Heterodimer Cotransfection Assay Agonist Efficacy (%): maximal response relative to response of BRL 49653; for activity on the RXRα:PPARγ heterodimer in combination with the PPARγ ligand: synergy mode, with BRL 49653
T2 construct: expressed in transfected cells; host or cells: CV-1 cells
T2 sequence (P19793 1-462): T1 sequence (P19793 1-462)
T2 sequence (P37231 1-505 partner): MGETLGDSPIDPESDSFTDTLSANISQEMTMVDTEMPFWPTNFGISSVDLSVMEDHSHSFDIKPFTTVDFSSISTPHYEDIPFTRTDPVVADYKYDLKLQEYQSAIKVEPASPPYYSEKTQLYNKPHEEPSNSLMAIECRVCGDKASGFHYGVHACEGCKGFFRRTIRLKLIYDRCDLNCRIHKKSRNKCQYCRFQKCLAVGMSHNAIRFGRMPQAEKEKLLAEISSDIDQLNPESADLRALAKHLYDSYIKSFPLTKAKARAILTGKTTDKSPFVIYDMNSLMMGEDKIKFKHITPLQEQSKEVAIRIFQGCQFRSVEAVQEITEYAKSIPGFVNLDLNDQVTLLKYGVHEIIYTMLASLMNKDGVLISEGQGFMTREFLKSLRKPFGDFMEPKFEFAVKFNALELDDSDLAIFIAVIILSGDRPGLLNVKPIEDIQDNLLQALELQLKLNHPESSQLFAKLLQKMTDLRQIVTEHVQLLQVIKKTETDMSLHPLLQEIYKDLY
Procedure: For determination of agonist activity in the context of the RXR:RAR heterodimer or the RXR:PPARγ heterodimer, media containing compounds of the present invention in concentrations ranging from 10^−10 to 10^−5 M were added to the cells.
Compounds of the present invention were also tested for the ability to synergize with a PPARγ agonist in the context of an RXR heterodimer. […] Efficacy of the compounds of the present invention in the agonist and synergy assays was calculated as the maximum response obtained over the range of the dose response curve relative to the maximum response obtained by the reference agonist. Antagonist efficacy was determined as a function (%) of maximal inhibition.
To examine the effects of the compounds of the present invention on the transcriptional properties of the RXR:PPARγ, a heterodimer cotransfection assay as described above was employed.

db/db mouse = db/db mouse study (rodent model of Type II diabetes); settings: for db/db mouse Glu. (D 14): plasma glucose, 100 mg/kg daily oral gavage; for db/db mouse Glu. (D 14) / db/db mouse Trigs. (D 14): day 14; for effect on the thyroid hormone axis / effect on triglycerides / insulin sensitizing activity / effect on glucose / insulin sensitizing activity with thyroid axis suppression and triglyceride elevations: rodent models of Type II Diabetes
Procedure: Mice (obtained from Jackson Laboratory), ZDF rats (obtained from Genetic Models Inc.) and fa/fa rats (obtained from either Charles River, or Harlan) were maintained on 12-hour light/dark cycle. […] Compounds were administered at the specified doses by oral gavage on the morning of each day of any experiment. Blood samples were obtained 3 hours after dosing from fed animals under anesthesia and collected into heparinized capillary tubes from the tail vein.

[1] = Table 3 c4, in presence of 3.2×10^−8 M LGD1069
[2] = % correction relative to lean values
[3] = plasma triglycerides, % correction relative to lean values, NC = no change

Row | SMILES | RXRα Homodimer Cotransfection Assay Agonist Efficacy (%) (RXRα homodimer (RXR:RXR); Table 3 c2, mean of n > 3) | RXRα Homodimer Cotransfection Assay Agonist Efficacy (%) (RXRα homodimer (RXR:RXR); [1]) | activity on the RXR:RXR homodimer (RXRα homodimer (RXR:RXR)) | RXR:RXR CV-1 (%) Antag. (RXRα homodimer (RXR:RXR)) [%] | RXR:RXR CV-1 (%) Ag. (RXRα homodimer (RXR:RXR)) [%] | EC50 (RXRα homodimer (RXR:RXR)) [nM] | activity on the RXRα:PPARγ heterodimer, tested alone (RXRα:PPARγ heterodimer) | PPARγ CV-1 (%) Synergy (RXRα:PPARγ heterodimer) [%] | RXRα:PPARγ Heterodimer Cotransfection Assay Synerg Efficacy (%) (RXRα:PPARγ heterodimer) | RXRα:PPARγ Heterodimer Cotransfection Assay Agonist Efficacy (%) (RXRα:PPARγ heterodimer) | activity on the RXRα:PPARγ heterodimer in combination with the PPARγ ligand (RXRα:PPARγ heterodimer) | db/db mouse Glu. (D 14) (db/db mouse; [2]) [%] | db/db mouse Trigs. (D3) (db/db mouse; plasma triglycerides, % correction relative to lean values, day 3, NC = no change) [%] | db/db mouse Trigs. (D 14) (db/db mouse; [3]) [%] | effect on the thyroid hormone axis (db/db mouse) | effect on triglycerides (db/db mouse) | insulin sensitizing activity / effect on glucose (db/db mouse) | IC50 (RXRα homodimer (RXR:RXR)) [nM] | db/db mouse T4 (D 3) (db/db mouse; total T4 as % of obese control values, day 3, NC = no change) [%] | insulin sensitizing activity with thyroid axis suppression and triglyceride elevations (db/db mouse)
1 | COc1c(/C(C)=C/C=C/C(C)=C/C(=O)O)cc(C(C)(C)C)cc1C(C)(C)C [Compound L1] | 62 | 7 | full RXR homodimer agonists; also recorded: agonist activity similar in efficacy and potency to the known RXR agonist, LG100268 | 7 | 62 | 33 | both agonist and synergistic activity similar to that seen with LGD1069 and LG100268 | 166 | 166 | 59 | both agonist and synergistic activity similar to that seen with LGD1069 and LG100268 | 96 | 300 | 54 | suppress the thyroid hormone axis | raise triglycerides | efficacious insulin sensitizers | – | – | –
2 | CCOc1c(/C(C)=C/C=C/C(C)=C/C(=O)O)cc(C(C)(C)C)cc1C(C)(C)C [Compound L2] | 11 | 62 | partial agonist | 62 | 11 | 14 | partial agonist alone | 69 | 69 | 14 | stronger activity in combination with the PPARγ ligand | 91 | – | 116 | suppresses thyroid hormone axis | – | – | 9 | 45 | –
3 | CCCOc1c(/C(C)=C/C=C/C(C)=C/C(=O)O)cc(C(C)(C)C)cc1C(C)(C)C [Compound L3] | 2 | 90 | highly efficacious and potent antagonist activity with little or no agonist activity | 90 | 2 | – | only weakly active alone | 25 | 25 | 6 | active in the presence of the PPARγ ligand | 75 | – | 133 | absence of detectable suppression of the thyroid hormone axis; also recorded: does not | – | – | 5 | – | maintain the desirable insulin sensitizing activity and eliminate or reduce both the suppression of the thyroid axis and triglyceride elevations; also recorded: maintain the desirable insulin sensitizing activity and minimize both the suppression of the thyroid axis and triglyceride elevations
4 | CCCCOc1c(/C(C)=C/C=C/C(C)=C/C(=O)O)cc(C(C)(C)C)cc1C(C)(C)C [Compound L4] | 1 | 92 | highly efficacious and potent antagonist activity with little or no agonist activity | 92 | 1 | – | only weakly active alone | 20 | 20 | 3 | active in the presence of the PPARγ ligand | 50 | – | 105 | absence of detectable suppression of the thyroid hormone axis | – | – | 9 | – | maintain the desirable insulin sensitizing activity and eliminate or reduce both the suppression of the thyroid axis and triglyceride elevations; also recorded: maintain the desirable insulin sensitizing activity and minimize both the suppression of the thyroid axis and triglyceride elevations
5 | CCCCCCCOc1c(/C(C)=C/C=C/C(C)=C/C(=O)O)cc(C(C)(C)C)cc1C(C)(C)C [Compound L5] | 0 | 94 | full antagonists; also recorded: highly efficacious and potent antagonist activity with little or no agonist activity | 94 | 0 | – | not active as an agonist | 6 | 6 | 4 | not active as an agonist | 0 | – | – | no effect | no effect | no effect | 10 | – | –
